From publication PMC6429263, “Evolution and Antibacterial Evaluation of 8-Hydroxy-cycloberberine Derivatives as a Novel Family of Antibacterial Agents Against MRSA” (Molecules, 2019)
≈ marks a conversion by molar mass, not a printed value. Where two headings read alike, the source gives them in different places.

Tests used:
[1] = test system: drug-susceptible strains: MSSA, MSSE, S. saprophyticus, S. hominis; experiment: MIC across the panel of drug-susceptible Gram-positive strains; assay type: cell-based; details: 18 h; drug-susceptible Gram-positive strains of Table 1; read-out: MICs (range over strains)
Source text: SAR study for antibacterial activity against drug-susceptible Gram-positive bacteria was initially carried out, taking Lev and compound 1 as reference drugs. […] Bacteria strains used in this study were from the ATCC collection and clinical isolates in Chinese hospitals. The influence of the methylenedioxy ring was explored first, and compounds 6 and 10 were created and tested.

[2] = test system: S.s ATCC 15305; experiment: MIC, agar dilution, S.s ATCC 15305; assay type: cell-based; details: Staphylococcus saprophyticus, ATCC15305
[3] = test system: VISA ATCC 700699; experiment: MIC, agar dilution, VISA ATCC 700699; assay type: cell-based; details: Staphylococcus aureus
[4] = test system: MRSE 16-5; experiment: MIC, agar dilution, MRSE 16-5; assay type: cell-based, S. epidermidis; details: Staphylococcus epidermidis
[5] = test system: MSSA 15; experiment: MIC, agar dilution, MSSA 15 (clinical isolate); assay type: cell-based, S. aureus; details: Staphylococcus aureus
[6] = test system: VISA ATCC 700698; experiment: MIC, agar dilution, VISA ATCC 700698; assay type: cell-based; details: Staphylococcus aureus
[7] = test system: MSSA 16-1; experiment: MIC, agar dilution, MSSA 16-1 (clinical isolate); assay type: cell-based, S. aureus; details: Staphylococcus aureus
[8] = test system: MSSE ATCC 12228; experiment: MIC, agar dilution, MSSE ATCC 12228; assay type: cell-based, S. epidermidis; details: Staphylococcus epidermidis
[9] = test system: MRSA 13-18; experiment: MIC, agar dilution, MRSA 13-18; assay type: cell-based; details: Staphylococcus aureus
[10] = test system: MRSA 13-23; experiment: MIC, agar dilution, MRSA 13-23; assay type: cell-based; details: Staphylococcus aureus
[11] = test system: MRSE 13-3; experiment: MIC, agar dilution, MRSE 13-3; assay type: cell-based, S. epidermidis; details: Staphylococcus epidermidis
[12] = test system: MRSA ATCC 43300; experiment: MIC, agar dilution, MRSA ATCC 43300; assay type: cell-based; details: Staphylococcus aureus
[13] = test system: MSSE 16-5; experiment: MIC, agar dilution, MSSE 16-5 (clinical isolate); assay type: cell-based, S. epidermidis; details: Staphylococcus epidermidis
[14] = test system: MRSA 16-34; experiment: MIC, agar dilution, MRSA 16-34; assay type: cell-based; details: Staphylococcus aureus
[15] = test system: MSSA ATCC 29213; experiment: MIC, agar dilution, MSSA ATCC 29213; assay type: cell-based, S. aureus; details: Staphylococcus aureus
[16] = test system: MRSA ATCC -BAA-976; experiment: MIC, agar dilution, MRSA ATCC-BAA-976 (clindamycin-resistant); assay type: cell-based; details: Staphylococcus aureus
[17] = test system: S.h ATCC 35982; experiment: MIC, agar dilution, S.h ATCC 35982; assay type: cell-based; details: Staphylococcus hominis, ATCC35982
[18] = test system: MRSA ATCC-B AA-1708; experiment: MIC, agar dilution, MRSA ATCC-BAA-1708 (mupA positive); assay type: cell-based; details: Staphylococcus aureus
[19] = Stability in whole blood; assay type: in vitro ADME, SD rat; details: for Rr (remaining ratio): whole blood, 37 °C
Protocol: Fresh blood was collected on the day of experiment from SD rats and pre-warmed in a water bath at 37 °C. 10 mM test compound or Ems stock solutions were prepared in DMSO, and then diluted with 45% MeOH/H2O to achieve 100 μM dosing solutions. Each dosing solution (2 μL) was incubated with 98 µL of blank blood at 37 °C in water bath for 0, 0.5, 1, 3, 7 and 24 h, respectively. At the end of incubation, for each sample, 100 μL water and 800 μL of stop solution (200 ng/mL tolbutamide plus 20 ng/mL buspirone in ACN) were immediately added to precipitate protein and centrifuge at 4,000 rpm for 20 min. An aliquot of supernatant (100 μL) was then extracted, mixed with 200 μL H2O and then shook at 800 rpm for about 10 min before submitting to LC-MS/MS analysis. The experiment was repeated two times.

[20] = S. saprophyticus ATCC 15305, read-out: MIC
[21] = VISA ATCC 700699, read-out: MIC
[22] = MSSA 15, isolated from patients in China, read-out: MIC
[23] = VISA ATCC 700698, read-out: MIC
[24] = MSSA 16-1, isolated from patients in China, read-out: MIC
[25] = ATCC12228, MSSE ATCC 12228, read-out: MIC
[26] = MSSE 16-5, isolated from patients in China, read-out: MIC
[27] = MRSA ATCC-BAA-976, clindamycin-resistant S. aureus, read-out: MIC
[28] = S. hominis ATCC 35982, read-out: MIC
[29] = MRSA ATCC-BAA-1708, mupA positive (mupirocin resistance), read-out: MIC

SMILES	MIC [2, 20]	MIC [3, 21]	MIC ([4]; MRSE 16-5, read-out: MIC)	MIC [5, 22]	MIC [6, 23]	MIC [7, 24]	MIC [8, 25]	MIC ([9]; MRSA 13-18, read-out: MIC)	MIC ([10]; MRSA 13-23, read-out: MIC)	MIC ([11]; MRSE 13-3, read-out: MIC)	MIC ([12]; MRSA ATCC 43300, read-out: MIC)	MIC [13, 26]	MIC ([14]; MRSA 16-34, read-out: MIC)	MIC ([15]; MSSA ATCC 29213, read-out: MIC)	MIC [16, 27]	MIC [17, 28]	MIC [18, 29]	further results
COc1ccc2c(c[n+]3ccc4cc5c(c6c(Cc7ccccc7)cc2c3c46)OCO5)c1O [13a, 1,2-Methylenedioxy-8-hydroxy-9-methoxy-13-benzylcycloberberine chloride]	8 µg/mL	8 µg/mL	16 µg/mL	16 µg/mL	8 µg/mL	8 µg/mL	16 µg/mL	16 µg/mL	16 µg/mL	8 µg/mL	16 µg/mL	8 µg/mL	8 µg/mL	8 µg/mL	16 µg/mL	8 µg/mL	8 µg/mL	MIC [1]: 8 to 16 µg/mL
COc1ccc2c(c[n+]3ccc4cc5c(c6c(Cc7ccc(Cl)cc7)cc2c3c46)OCO5)c1O [13e, 1,2-Methylenedioxy-8-hydroxy-9-methoxy-13-p-chlorobenzylcycloberberine chloride]	16 µg/mL	8 µg/mL	4 µg/mL	8 µg/mL	4 µg/mL	4 µg/mL	8 µg/mL	8 µg/mL	8 µg/mL	64 µg/mL	8 µg/mL	4 µg/mL	4 µg/mL	8 µg/mL	4 µg/mL	8 µg/mL	8 µg/mL	MIC [1]: 2 to 8 µg/mL
COc1ccc2c(c[n+]3ccc4cc5c(c6c(Cc7ccc([N+](=O)[O-])cc7)cc2c3c46)OCO5)c1O [13r, 1,2-Methylenedioxy-8-hydroxy-9-methoxy-13-p-nitrobenzylcycloberberine chloride]	32 µg/mL	4 µg/mL	16 µg/mL	8 µg/mL	4 µg/mL	16 µg/mL	4 µg/mL	32 µg/mL	8 µg/mL	> 64 µg/mL	64 µg/mL	4 µg/mL	8 µg/mL	16 µg/mL	32 µg/mL	8 µg/mL	4 µg/mL	–
CCCc1cc2c3ccc(OC)c(O)c3c[n+]3ccc4cc5c(c1c4c23)OCO5 [15b, 1,2-Methylenedioxy-8-hydroxy-9-methoxy-13-propylcycloberberine chloride]	8 µg/mL	2 µg/mL	2 µg/mL	2 µg/mL	4 µg/mL	2 µg/mL	2 µg/mL	4 µg/mL	4 µg/mL	4 µg/mL	4 µg/mL	1 µg/mL	2 µg/mL	2 µg/mL	2 µg/mL	2 µg/mL	2 µg/mL	–
CCCCc1cc2c3ccc(OC)c(O)c3c[n+]3ccc4cc5c(c1c4c23)OCO5 [15c, 1,2-Methylenedioxy-8-hydroxy-9-methoxy-13-butylcycloberberine chloride]	16 µg/mL	4 µg/mL	8 µg/mL	4 µg/mL	4 µg/mL	4 µg/mL	8 µg/mL	4 µg/mL	8 µg/mL	16 µg/mL	4 µg/mL	8 µg/mL	8 µg/mL	8 µg/mL	4 µg/mL	4 µg/mL	8 µg/mL	–
CCOC(=O)[C@H](CCc1ccccc1)N[C@@H](C)C(=O)N1CCC[C@H]1C(=O)O [Ems, enalapril]	–	–	–	–	–	–	–	–	–	–	–	–	–	–	–	–	–	stability in whole blood [19]: completely decomposed; Rr (remaining ratio) ([19]; 0 h): 100%; Rr (remaining ratio) ([19]; 0.5 h): 37.5%; Rr (remaining ratio) ([19]; 1 h): 9.1%; Rr (remaining ratio) ([19]; 3 h): 0%; Rr (remaining ratio) ([19]; 7 h): 0%; Rr (remaining ratio) ([19]; 24 h): 0%
C[C@H]1COc2c(N3CCN(C)CC3)c(F)cc3c(=O)c(C(=O)O)cn1c23 [Lev, levofloxacin, reference compound]	1 µg/mL (≈ 2.77 µM)	8 µg/mL (≈ 22.1 µM)	8 µg/mL (≈ 22.1 µM)	–	32 µg/mL (≈ 88.6 µM)	0.25 µg/mL (≈ 0.692 µM)	–	32 µg/mL (≈ 88.6 µM)	64 µg/mL (≈ 177 µM)	32 µg/mL (≈ 88.6 µM)	32 µg/mL (≈ 88.6 µM)	–	64 µg/mL (≈ 177 µM)	–	–	–	16 µg/mL (≈ 44.3 µM)	MIC ([5]; MSSA): 0.125 µg/mL (≈ 0.346 µM); MIC ([8]; ATCC12228, 18 h, MSSE ATCC 12228, read-out: MIC): 0.126 µg/mL (≈ 0.349 µM); MIC [13]: 0.125 µg/mL (≈ 0.346 µM); MIC [15]: 0.125 µg/mL (≈ 0.346 µM); MIC [16]: 0.125 µg/mL (≈ 0.346 µM); MIC [17]: 0.125 µg/mL (≈ 0.346 µM)
COc1ccc2c(c[n+]3c4c2ccc2c5c(cc(c24)CC3)OCO5)c1O [compound 1, reference compound]	–	–	–	–	–	–	–	–	–	–	–	–	–	–	–	–	–	MIC [2]: > 64 µg/mL; MIC [3]: 0.5 µg/mL; MIC ([4]; MRSE): 0.5 µg/mL; MIC ([5]; MSSA): 4 µg/mL; MIC [6]: 1 µg/mL; MIC ([7]; MSSA): 1 µg/mL; MIC ([8]; ATCC12228): 0.5 µg/mL; MIC ([9]; MRSA): 1 µg/mL; MIC ([10]; MRSA): 1 µg/mL; MIC ([11]; MRSE): > 64 µg/mL; MIC [12]: 0.5 µg/mL; MIC [13]: 0.5 µg/mL; MIC ([14]; MRSA): 0.5 µg/mL; MIC [15]: 0.5 µg/mL; MIC [16]: 1 µg/mL; MIC [17]: 1 µg/mL; MIC [18]: 0.5 µg/mL
